Test results as given in ChEMBL document CHEMBL1122606, “cis-4-[[[(2-Chloroethyl)nitrosoamino]carbonyl]methylamino] cyclohexanecarboxylic acid, a nitrosourea with latent activity against an experimental solid tumor” (J Med Chem, 1984).

Legend:
[1] = Half life period in phosphate buffer (pH 7.4); assay type: ADME
[2] = species: Mus musculus; experiment: Dose showing lethal effects on 10% of the mice bearing lewis lung tumors.; assay type: functional

| SMILES | half-life [1] [h] | LD10 [2] [mg/kg] |
| --- | --- | --- |
| O=NN(CCCl)C(=O)NC1CCC(C(=O)O)CC1 (centres undefined) | 46 | 26 |
| CN(C(=O)N(CCCl)N=O)C1CCC(C(=O)O)CC1 (centres undefined) | 4.5 | >400 |
